Where two headings read alike, the source gives them in different places. Where a SMILES comes first, the peptide text is derived from it. Bridges are numbered along the chain shown (N, C = ends).
Legend:
[1] = tested on: 1:1 mixture of E. coli CVCC195 and S. aureus ATCC43300; format: cell-based, Escherichia coli; Staphylococcus aureus; settings: Mean
Method: The selectivity of A6, G6, and N6 against Gram-negative and Gram-positive bacteria was determined using the mixed-culture bactericidal kinetics assay, as described in the Supplementary Information.
27 Supplementary Figure 6. Killing selectivity of peptides. A 1:1 mixture of E. coli (Ec) and S. aureus
28 (Sa) was treated with A6 (16 μg per ml), G6 (16 μg per ml) or N6 (2 μg per ml) for 1, 3 and 5 min,
29 respectively; survivors were counted in MH plates. The change in relative ratio of E. coli to S. aureus
30 (Ec/Sa) after treatment with A6, G6 or N6 is shown.
31 independent experiments).
(1 picture or pasted object on this page, not shown here)
102 Supplementary Methods
103 Mixed-culture bactericidal kinetics of SCPs-A6 and G6. The mid-exponential phage E. coli
104 CVCC195 and S. aureus ATCC43300 cultures were diluted to 2 × 10^5 CFU per ml, mixed (1:1) and
105 added into the 96-well plates. A6, G6 or N6 were added into each well of plates to final concentration
106 of 16 (A6 and G6) or 2 (N6) μg per ml in a 200-μl total volume. An aliquot was removed at 1, 3 and 5
107 min, respectively, and survivors were counted on MH solid plates1–3. […]

LPS-induced lung injury = assay: Protection of lung tissues from LPS (histology); format: in vivo; settings: LPS-challenged mice, 0.25 μmol per kg
Method: The mice were treated with N6 (0.25 μmol per kg), A6 (0.25 μmol per kg), G6 (0.25 μmol per kg), and PMB (10 μmol per kg), respectively after the intraperitoneal injection of LPS at a concentration of LD100. The lung tissues were taken at 1 d and 6 d, respectively, washed with PBS and placed in 4% paraformaldehyde for 24 h at 4 °C. After washing with PBS, the tissues were dehydrated by a series of different concentrations of ethanol (75%, 85%, 90%, and 95%) and were immersed in xylene for paraffin embedding. After sectioning, the samples were stained with hematoxylin and were observed by a light microscope. The mice challenged with LPS and PBS served as the negative and blank control, respectively.

binding of LPS to LBP = assay: Binding of LPS to LBP on LPS-immobilized plate (ELISA); format: biochemical; settings: mean of n = 3
Method: The 96-well microtiter plates were coated with 4 ng per ml LPS (0.1 M Na2CO3 and 20 mM EDTA, pH 9.6, 50 μl per well) overnight at 4 °C, washed three times with PBST, and blocked with PBS (containing 1% BSA) for 2 h. After washing with PBST again, the plates were incubated at 37 °C for 1 h with different concentrations of peptides (A6, G6, or N6), which were dissolved in Dulbecco's Modified Eagle's (DMEM) medium (containing 10% FBS). After washing, cells were incubated with anti-LBP mAb 6G3 (ThermoFisher) for 1 h at 37 °C and HRP-conjugated rabbit anti-mouse IgG for 1 h at room temperature, respectively. Tetramethylbenzidine (TMB) solution was then added and incubated for 25–30 min. Finally, the reaction was stopped by addition of 0.5 M H2SO4, and the absorbance was measured at 450 nm[50].

[2] = tested on: Intestinal alkaline phosphatase (IAP); assay: IAP level in duodenum of LPS-challenged mice; format: in vivo; settings: duodenum homogenate, peptides 0.25 μmol per kg, PMB 10 μmol per kg, LPS alone 10.2985, CK 14.2257, n = 3
Method: The mice were intraperitoneally injected with LPS at an absolute LD100 and then were treated with 0.25 μmol per kg peptides (A6, G6 and N6) or 10 μmol per kg PMB at 0.5 h after challenge. The mice were sacrificed at 2 h and the sera were collected to detect inflammatory cytokines (including TNF-α, IL-6 and IL-10) using ELISA kits. To visualize IAP activity, the duodenum was rapidly excised from the mice and was homogenized; the IAP levels in the superpants were detected as described in the Supplementary Information. […]
114 Effects of SCPs on inflammatory cytokines and IAP. The serum sample (50 μl) was added into
115 each well of the plate; 50 μl of TNF-α, IL-I, IL-10 or IAP standard, control and test samples were then
116 added to each well of the plate, followed by placing the latex film on the shaker and incubation for 2
117 h at room temperature. After discarding the liquid in the well, the enzyme labeling plate was placed in
118 a 400 μl washing solution in the washing machine for 4 times; the enzyme labeling plate is inverted
119 and tapped on a clean paper towel so that there was no residual liquid in each hole . Mouse TNF-α，
120 IL-I，IL10 or IAP Conjugate (HRP Conjugate Detection Ab) working solution (100 μl) was added to
121 each well of the plate (diluted 1:100 before the test); the latex film was placed on the shaker and
122 incubated for 2 h at room temperature. After discarding the liquid in the well, the enzyme labeling
123 plate was placed in a 400 μl washing solution in the washing machine for 4 times, then the enzyme
124 labeling plate is inverted, and tapped on a clean paper towel so that there is no residual liquid in each
125 hole. Substrate Solution (100 μl) was added to each well of the plate and incubated at room
126 temperature for 30 min in the dark. Finally, 100 μl of Stop Solution (2N sulfuric acid solution) was
127 added to each well of the plate and gently mixed the plate to stop the reaction. The optical density
128 value was read by placing the microplate in a microplate reader for 30 min with the reading
129 wavelength of 450 nm and the calibration wavelength of 570 nm.
131 1. Kaplan, C. W., et al. Selective membrane disruption: mode of action of C16G2, a specifically
133 2. Eckert, R., et al. Adding selectivity to antimicrobial peptides: rational design of a multidomain
134 peptide against Pseudomonas spp. Antimicrob Agents Chemother. 50(4), 1480–1488 (2006).
135 3. Eckert, R., et al. Targeted killing of Streptococcus mutans by a pheromone-guided "smart"

MDR E. coli CVCC195 = assay: pH stability, residual antibacterial activity (inhibition zone); format: physicochemical, Escherichia coli; settings: inhibition zone vs E. coli CVCC195, mean of n = 3
Method: The N6, A6, and G6 solutions were treated at different temperatures (20–100 °C) for 1 h, dissolved and incubated at different pH values (2–10) for 3 h, or incubated with trypsin or pepsin for 4 h. The inhibition zone diameters were measured after incubation at 37 °C for 18–24 h.

[3] = 0.625 μM, LPS-coated plate, peptide in DMEM + 10% FBS, 37 °C, 1 h, anti-LBP mAb, OD450

## CC(C)[C@@H]1NC(=O)CNC(=O)[C@H](CC(N)=O)NC(=O)[C@H](CCCNC(=N)N)NC(=O)[C@H](Cc2ccc(O)cc2)NC(=O)[C@H](C(C)C)NC(=O)[C@@H](NC(=O)[C@@H](NC(=O)[C@H](CC(N)=O)NC(=O)[C@H](Cc2c[nH]c3ccccc23)NC(=O)[C@H](C)NC(=O)[C@H](Cc2ccccc2)NC(=O)CN)C(C)C)CSSC[C@@H](C(=O)N[C@@H](Cc2c[nH]cn2)C(=O)N[C@@H](CCCNC(=N)N)C(=O)N[C@@H](CCCNC(=N)N)C(=O)N[C@@H](C)C(=O)N[C@@H](CC(N)=O)C(=O)O)NC(=O)[C@H](C(C)C)NC(=O)[C@H](CCCNC(=N)N)NC1=O [N6] (H-GFAWNVCVYRNGVRVCHRRAN-OH; disulfide 7-16; N-terminus and C-terminus assumed)
[1]; time 0 min
  killing selectivity of peptides: 0.9569
[1]; time 1 min
  killing selectivity of peptides: 0.9093
[1]; time 3 min
  killing selectivity of peptides: 0.8204
[1]; time 5 min
  killing selectivity of peptides: 0.6732
LPS-induced lung injury
  lung histology at 1 d: partial alleviation of tissue swelling and injury
  lung histology at 6 d: no pathological changes
Binding of LPS to LBP; [3]
  LPS-LBP binding (relative), Mean: 0.82
Binding of LPS to LBP; 1.25 μM
  LPS-LBP binding (relative), Mean: 1.017
Binding of LPS to LBP; 2.5 μM
  LPS-LBP binding (relative), Mean: 0.8065
Binding of LPS to LBP; 5 μM
  LPS-LBP binding (relative), Mean: 0.8105
Binding of LPS to LBP; 10 μM
  LPS-LBP binding (relative), Mean: 0.7607
Binding of LPS to LBP; 20 μM
  LPS-LBP binding (relative), Mean: 0.6457
Binding of LPS to LBP; 40 μM
  LPS-LBP binding (relative), Mean: 0.5608
[2]
  IAP, Mean: 10.7594
MDR E. coli CVCC195; pH=2 for 3 h
  antibacterial activity after pH treatment (inhibition zone diameter), Mean: 1.883
MDR E. coli CVCC195; pH=4 for 3 h
  antibacterial activity after pH treatment (inhibition zone diameter), Mean: 1.877
MDR E. coli CVCC195; pH=6 for 3 h
  antibacterial activity after pH treatment (inhibition zone diameter), Mean: 1.87
MDR E. coli CVCC195; pH=8 for 3 h
  antibacterial activity after pH treatment (inhibition zone diameter), Mean: 1.86
MDR E. coli CVCC195; pH=10 for 3 h
  antibacterial activity after pH treatment (inhibition zone diameter), Mean: 1.887

## H-RVQGRWKVRASFFKEAAAKEAAAKGFAWNVCVYRNGVRVCHRRAN-OH (disulfide 31-40) [A6]
[1]; time 0 min
  killing selectivity of peptides: 0.9569
[1]; time 1 min
  killing selectivity of peptides: 0.7697
[1]; time 3 min
  killing selectivity of peptides: 0.8015
[1]; time 5 min
  killing selectivity of peptides: 0.5904
LPS-induced lung injury
  lung histology at 1 d: partial alleviation of tissue swelling and injury
  lung histology at 6 d: no pathological changes
Binding of LPS to LBP; [3]
  LPS-LBP binding (relative), Mean: 0.6863
Binding of LPS to LBP; 1.25 μM
  LPS-LBP binding (relative), Mean: 0.4991
Binding of LPS to LBP; 2.5 μM
  LPS-LBP binding (relative), Mean: 0.4036
Binding of LPS to LBP; 5 μM
  LPS-LBP binding (relative), Mean: 0.3236
Binding of LPS to LBP; 10 μM
  LPS-LBP binding (relative), Mean: 0.2858
Binding of LPS to LBP; 20 μM
  LPS-LBP binding (relative), Mean: 0.2468
Binding of LPS to LBP; 40 μM
  LPS-LBP binding (relative), Mean: 0.1705
[2]
  IAP, Mean: 11.893
MDR E. coli CVCC195; pH=2 for 3 h
  antibacterial activity after pH treatment (inhibition zone diameter), Mean: 1.463
MDR E. coli CVCC195; pH=4 for 3 h
  antibacterial activity after pH treatment (inhibition zone diameter), Mean: 1.443
MDR E. coli CVCC195; pH=6 for 3 h
  antibacterial activity after pH treatment (inhibition zone diameter), Mean: 1.4
MDR E. coli CVCC195; pH=8 for 3 h
  antibacterial activity after pH treatment (inhibition zone diameter), Mean: 1.41
MDR E. coli CVCC195; pH=10 for 3 h
  antibacterial activity after pH treatment (inhibition zone diameter), Mean: 1.4

## polymyxin B [PMB]
Binding of LPS to LBP; [3]
  LPS-LBP binding (relative), Mean: 0.8274
Binding of LPS to LBP; 1.25 μM
  LPS-LBP binding (relative), Mean: 0.5768
Binding of LPS to LBP; 2.5 μM
  LPS-LBP binding (relative), Mean: 0.4491
Binding of LPS to LBP; 5 μM
  LPS-LBP binding (relative), Mean: 0.3343
Binding of LPS to LBP; 10 μM
  LPS-LBP binding (relative), Mean: 0.393
Binding of LPS to LBP; 20 μM
  LPS-LBP binding (relative), Mean: 0.3466
Binding of LPS to LBP; 40 μM
  LPS-LBP binding (relative), Mean: 0.2168
[2]
  IAP, Mean: 13.0879

From article PMC6978316, “Development of chimeric peptides to facilitate the neutralisation of lipopolysaccharides during bactericidal targeting of multidrug-resistant Escherichia coli” (Communications Biology, 2020)
